Numbered stars: 1 amine (or outer) side, 2 acyl side, 3 side chain; on linkers, the order of the positions; unused ones are H or OH. Peptide text beside a SMILES is read from it. * marks the point of attachment. AMC = Cc1cc(=O)oc2cc(N*)ccc12; Suc = O=C(CCC(=O)[*:2])[*:1]
How the values were obtained:
[1] = biological target: T1, 26S proteasome holoenzyme (proteolytic core sites) (Homo sapiens, UniProt P28074); experiment: AMC fluorescence ([…] nm); type: biochemical; details: 1 μM substrate, 40 nM proteasome, alone or with heparin or tau aggregates
T1 construct: gene PSMB5; 26S holoenzyme (20S core with one or two 19S caps) purified from HEK293T via Rpn11-His6-TEV-biotin, TEV eluted; with Proteasome subunit beta type-1; Proteasome subunit beta type-2; Proteasome subunit beta type-3; Proteasome subunit beta type-4; Proteasome subunit alpha type-1; Proteasome subunit alpha type-2; Proteasome subunit alpha type-3; Proteasome subunit alpha type-4; Proteasome subunit alpha type-5; Proteasome subunit alpha type-6; Proteasome subunit alpha type-7; 26S proteasome non-ATPase regulatory subunit 14

[2] = biological target: T2, α-synuclein (αS), fibrils (Homo sapiens, UniProt P37840); experiment: TIRF single-aggregate fluorescence; type: binding; details: 30 nM pFTAA in PBS, 100 nM αS (monomer equivalent); binds amyloid fibrils
T2 construct: gene SNCA; untagged wild-type recombinant from E. coli BL21(DE3) pLysS; fibrils assembled in PBS with shaking

Row | Compound | AMC fluorescence (340/440 nm) [1] | TIRF single-aggregate fluorescence [2]
1 | Cc1cc(=O)oc2cc(NC(=O)[C@H](Cc3ccc(O)cc3)NC(=O)[C@@H](NC(=O)[C@H](CC(C)C)NC(=O)[C@H](CC(C)C)NC(=O)CCC(=O)O)C(C)C)ccc12 [LLVY-AMC] (Suc-LLVY-{AMC}) | proteasomal peptidase activity against a model substrate, suc-Leu-Leu-Val-Tyr-7-amino-4-methylcoumarin (LLVY-AMC) | –
2 | O=C(O)Cc1cc(-c2ccc(C(=O)O)s2)sc1-c1ccc(-c2sc(-c3ccc(C(=O)O)s3)cc2CC(=O)O)s1 [pFTAA] | – | Fibrils assembled from αS could be reproducibly detected
